Counter-ions that a name gives are not always drawn.
Legend:
[1] = target: T1, human NK2 receptor (Homo sapiens, UniProt P21452); experiment: Neurokinin A (NKA) Receptor-binding Assay (Test A); settings: 3H-NKA, MELM, 60 min at 25° C., pH 7.4
T1 sequence (P21452 1-398): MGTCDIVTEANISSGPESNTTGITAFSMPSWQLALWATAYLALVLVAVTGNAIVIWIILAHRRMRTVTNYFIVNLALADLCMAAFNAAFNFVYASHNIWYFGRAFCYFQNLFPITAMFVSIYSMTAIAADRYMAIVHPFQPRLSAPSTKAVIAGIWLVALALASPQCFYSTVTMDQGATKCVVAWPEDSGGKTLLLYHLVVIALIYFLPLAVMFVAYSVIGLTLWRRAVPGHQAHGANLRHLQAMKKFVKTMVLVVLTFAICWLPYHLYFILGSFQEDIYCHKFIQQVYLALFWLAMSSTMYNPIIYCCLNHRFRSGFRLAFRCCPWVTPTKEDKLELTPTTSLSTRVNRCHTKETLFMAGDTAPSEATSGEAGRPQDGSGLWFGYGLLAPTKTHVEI
Description: Membrane preparations (MELM) prepared from the MEL cells containing high-affinity NK2 receptors were prepared according to a published protocol (D. Aharony, et al., Neuropeptides (1992) 23, 121-130) with the following minor modifications: (1) Iodoacetamide (1 mM) was included in the homogenization buffer; (2) Homogenization was as published but for a shorter period of 10 seconds once and at a slower speed (setting 10); and (3) The equilibration step with KCl/EDTA was not performed.

[2] = target: T2, guinea pig trachea (Cavia porcellus, UniProt Q64077); experiment: Guinea Pig Trachea Assay (Test B); format: cell-based; settings: antagonism of NKA or [β-ala8]-NKA(4-10) contraction; -log molar KB; read-out: pKB (Test B) (converted)
T2 construct: The trachea are removed, trimmed of excess tissue and divided into two segments; from tissue; host or cells: trachea of male guinea pigs, rings in tissue baths
T2 sequence (Q64077 1-402): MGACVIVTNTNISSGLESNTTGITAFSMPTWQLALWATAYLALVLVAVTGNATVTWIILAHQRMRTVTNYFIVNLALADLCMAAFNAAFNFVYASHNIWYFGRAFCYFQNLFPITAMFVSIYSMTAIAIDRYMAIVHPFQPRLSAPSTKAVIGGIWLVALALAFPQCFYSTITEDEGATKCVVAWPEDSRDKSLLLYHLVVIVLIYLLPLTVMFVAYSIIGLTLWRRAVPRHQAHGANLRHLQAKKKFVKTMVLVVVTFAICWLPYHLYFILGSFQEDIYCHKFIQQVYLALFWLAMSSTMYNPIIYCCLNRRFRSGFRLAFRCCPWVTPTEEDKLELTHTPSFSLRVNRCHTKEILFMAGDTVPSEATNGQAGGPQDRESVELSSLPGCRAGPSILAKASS
Description: Guinea Pig Trachea Assay (Test B)
In the test described below either NKA or [β-ala^8 ]-NKA(4-10) is used as an agonist. The chosen agonist is referred to as AG throughout the description.
Male guinea pigs are killed by a sharp blow to the back of the head. The trachea are removed, trimmed of excess tissue and divided into two segments. […] Initial tension placed on each tissue is 1 g, which is maintained throughout a 0.5 to 1.5 hour equilibration period before addition of other drugs. Contractile responses are measured on a Grass polygraph via Grass FT-03 force transducers.
Tissues are challenged repetitively with a single concentration of AG (10 nM) with intervening 30 min periods with washing to allow the tension to return to baseline levels. […] Percent inhibition is determined when a Compound produces a statistically significant (p<0.05) reduction of the contraction and is calculated using the second contractile response as 100%.
Potencies of selected Compounds are evaluated by calculating apparent dissociation constants (KB) for each concentration tested using the standard equation: […]
where dose ratio=antilog[(AG -log molar EC50 without Compound)--(AG -log molar EC50 with Compound)]. The KB values may be converted to the negative logarithms and expressed as -log molar KB (i.e. pKB). […] The EC50 values are converted to the negative logarithms and expressed as -log molar EC50. […]

[3] = tested on: NK2 receptor; experiment: Guinea Pig Labored Abdominal Breathing (Dyspnea) Assay (Test C); format: in vivo; settings: oral, two hours prior to challenge with the agonist [β-ala8]-NKA(4-10) aerosol; all five animals fully protected
Description: Guinea Pig Labored Abdominal Breathing (Dyspnea) Assay (Test C)
Using the clear plastic chamber described previously by Snyder et al. to secure guinea pigs for a head-only aerosol exposure to bronchoconstrictor agonists, agonist is administered by aerosol to six conscious guinea pigs simultaneously during each maneuver. The tachykinin NK2-selective agonist, [β-ala^8 ]-NKA(4-10), 3×10^-5 M, is aerosolized from a Devilbiss Model 25 ultrasonic nebulizer into an air stream entering the chamber at a rate of 2 L/minute.
Guinea pigs (275-400 g) are fasted for approximately 16 hours prior to experimentation. Compounds to be evaluated for blockade of effects of [β-ala^8 ]-NKA(4-10) or their vehicle (10% PEG400 in saline) are administered p.o. or i.v. at various times before aerosol agonist challenge. All animals are pretreated with atropine (10 mg/kg, j.p., 45 minutes pretreatment) indomethacin (10 mg/kg, i.p., 30 minutes pretreatment), propranolol (5 mg/kg, i.p., 30 minutes pretreatment), and thiorphan (1 mg/ml aerosol for 5 minutes, 15 minutes pretreatment)
Aerosol challenge with the agonist produces an initial increase in respiratory rate followed by a decrease with early signs of minor involvement of the abdominal muscles. […] Time, in seconds, from the onset of aerosol challenge to this end point is determined for each animal by using a stopwatch. […]

Structure (SMILES) | Ki [1] | Kb [2] | protection (Test C) [3]
CC(=O)OCCC1CCN(CCC(CN(C)C(=O)c2ccccc2)c2ccc(Cl)c(Cl)c2)CC1 (centres unmarked) [Example 10, N-[2-(3,4-Dichlorophenyl)-4-[4-(2-acetoxyethyl)piperidino]butyl]-N-methylbenzamide hydrochloride] | 40 nM | 15.8 nM | –
CCC(O)(CC)C1CCN(CC[C@H](CN(C)C(=O)c2ccccc2)c2ccc(Cl)c(Cl)c2)CC1.Cl [Example 16, (S)-N-[2-(3,4-Dichlorophenyl)-4-[4-(1-ethyl-1-hydroxypropyl)piperidino]butyl]-N-methylbenzamide hydrochloride] | 1.5 nM | 3.98 nM | 100%
